Where two headings read alike, the source gives them in different places.
Assays:
[1] = tested on: human primary skin-derived mast cells; test: Histamine release from skin-derived human mast cells; format: cell-based; details: Mast cell, n=2 donors
Method: Rationale and method: Skin tissue was used as a source of primary human tissue mast cells. Surgical skin discard samples were provided under informed consent and collected by the University Hospital Basel in accordance with the Swiss Human Research Act and approval of the responsible ethic committee (Ethikkommission Nordwest und Zentralschweiz). Skin tissue was dissociated and intact mast cells were prepared according to the protocol of Kulka and Metcalfe (Kulka et al. 2010, current protocols in Immunology; SUPPL. 90:1-11). The isolated mast cells were characterized phenotypically and used for a degranulation assay as described above ((Neuberger, M.S. et al. (1985), Nature 314 (6008), pp 268-70. doi: 10.1038/314268a0). The mast cells were sensitized with JW8 IgE antibody and then pre-incubated with serial compound dilutions for 30 minutes at 37° C. Then degranulation was triggered by adding haptenized NIP-BSA to crosslink the FcERI. After 30 minutes, supernatants were collected and analyzed for histamine with an HTRF-based immunoassay (Cisbio Bioassays).

[2] = LOU064 levels in blood, RPA study; format: in vivo, mice
Method: (§1) Female C57BI6 mice (Charles River, France), 8-10 weeks of age, were used. The back of the mice was shaved 24 hours prior to the skin injections. This allowed any potential irritation of the skin to resolve. The Arthus reaction was triggered two hours after compound dosing in the dose-response study or at the timepoints noted in the time-course study. To elicit the Arthus reaction, 50 μl of PBS (control site) or polyclonal rabbit anti-ovalbumin IgG at a concentration of 30 μg in PBS (C6534, Sigma) was injected i.d. into the dorsal skin. The intradermal injection was followed immediately by an i.v. injection of 200 μl ovalbumin (20 mg/kg) in saline (05450 Fluka). Three hours after the injection of the ovalbumin the mice were killed, bled for monitoring of the compound concentration and the spleens removed for BTK occupancy measurement. The thickness of the injected control and anti-ovalbumin IgG skin sites was measured using a digital caliper, and the thickness of the anti-ovalbumin IgG injected sites minus the saline control sites were then calculated for the mice in all treatment groups.
Blood samples were taken as denoted and compound measurement was performed. Blood samples were spiked with a structurally similar internal standard mixed with acetonitrile (4 volumes) and centrifuged at ˜ 4000 rpm (4° C.). Supernatant was then transferred into a microtiter plate. An aliquot of each sample was injected into an LC-MS/MS system for determination of concentrations of the parent molecule.

[3] = Concentrations of LOU064 in blood, PCA study; format: in vivo, mice; details: BALB/c, mouse, whole blood, oral, 2.5 hours after second dose, low-dose IgE sensitization, Mean ± SD (n = 5)
Method: LOU064 was tested in a murine PCA model. The model used BALB/c mice aged 8-10 weeks of age. For passive sensitization with hapten-specific IgE, mice under isoflurane anesthesia were given an intradermal injection of 20 μl anti-DNP IgE in saline into the right ear and 20 μl of saline into the left ear. For FccR-specific PCA, mice were given a low dose of 3 ng anti-DNP IgE. For maximal PCA mice were given a high dose of 25 ng anti-DNP IgE. LOU064 was administered p.o. in a volume of 5 ml/kg body weight. A first dose was administered 4 hours after sensitization on the evening before challenge. The next morning, 2 hours prior to hapten challenge, mice were given a second oral dose of LOU064.
Mice were challenged with hapten 2 hours after the second dose by placing them into a heated chamber. Animals were then injected i.v. with 100 μg of the hapten DNP-HSA (dinitrophenyl-human serum albumin) in 200 μl of 2% Evans blue diluted in PBS. The mice were then returned to their cage for exactly 30 minutes. Thirty minutes later, animals were then anesthetized with isoflurane and bled retro-orbitally using EDTA coated blood collection tubes for analysis of compound exposure. The mice were then sacrificed by cervical dislocation. A 6 mm punch biopsy was taken from both the left and the right ear and placed into 100 μl of formalin. The skin biopsies were incubated at 80° C. overnight to extract the dye. Twenty-four hours later 80 μl of formalin solution were transferred to a clear flat bottom 96 well plate and the optical absorption was read at 620 nm. Analysis was performed by subtracting the left ear (saline) from the right ear (IgE) to determine how much dye was released into the skin tissue of the biopsy. Statistical significance was determined by ANOVA. Spleens were removed for BTK occupancy analysis.
Analysis of blood level: Blood samples were taken as denoted and compound measurement was performed. Blood samples were spiked with a structurally similar internal standard mixed with acetonitrile (4 volumes) and centrifuged at ˜ 4000 rpm (4° C.). Supernatant was then transferred into a microtiter plate. An aliquot of each sample was injected into an LC-MS/MS system for determination of concentrations of the parent molecule.
The concentrations of LOU064 present in mouse blood, 2.5 hours after the second compound dose are shown for the low-dose IgE sensitization in Table 1.

LAD2 cells = test: FcER-induced mast cell degranulation in LAD2 cells; format: cell-based; details: Homo sapiens, n=3, read-out: IC50, IgE/FcER-induced mast cell degranulation (β-tryptase)
Source text: Rationale and method: The human mastocytosis cell line LAD2 expresses FcERI and upon crosslinking of the receptor the cells degranulate and release inflammatory mediators like β-tryptase and hexosaminidase (Wernersson et al. 2014, Immunology; 14 (7): 478-94). The assay involves 4-hydroxy-3-iodo-5-nitrophenylacetic acid (NIP) haptenized bovine serum albumin (BSA) and the NIP-specific chimeric IgE antibody JW8 (Neuberger, M.S. et al. (1985), Nature 314 (6008), pp 268-70. doi: 10.1038/314268a0). The LAD2 cells were sensitized with JW8 IgE antibody and then incubated with serial compound dilutions for 30 minutes at 37° C. Then degranulation was triggered by adding haptenized NIP-BSA to crosslink the FcER. After one hour, supernatants were collected and analyzed for B-tryptase levels.

[4] = tested on: FccR1 mediated basophil activation; details: cited from earlier work
C57BI6 mice = test: Reverse passive Arthus (RPA) reaction in mouse skin: skin swelling; format: in vivo; details: for Inhibition of the Arthus reaction (skin swelling): dosed 2 hours prior to induction, read at 3 hours
Method: The effect of a single dose of LOU064 was tested in the acute mouse reverse passive Arthus (RPA) model to assess its effect on a dermal anaphylaxis reaction triggered by IgG immune complexes and mediated by FcGRIIl on mast cell.
as §1

C=CC(=O)N(C)CCOc1c(N)ncnc1-c1cc(F)cc(NC(=O)c2ccc(C3CC3)cc2F)c1C [LOU064, N-(3-(6-amino-5-(2-(N-methylacrylamido)ethoxy)pyrimidin-4-yl)-5-fluoro-2-methylphenyl)-4-cyclopropyl-2-fluorobenzamide]
IC50 [1]: 16.5 nM
concentration at 5 h ([2]; female, C57BI6, mouse, whole blood, oral, 3 mg/Kg single p.o., 5 hours after dosing): 2.04 nM
concentration at 5 h ([2]; female, C57BI6, mouse, whole blood, oral, 10 mg/Kg single p.o., 5 hours after dosing, Mean ± SD): 2.87 ± 0.58 nM
concentration at 5 h ([2]; female, C57BI6, mouse, whole blood, oral, 30 mg/Kg single p.o., 5 hours after dosing, Mean ± SD): 25.2 ± 20.9 nM
concentration at 5 h ([2]; female, C57BI6, mouse, whole blood, oral, 100 mg/Kg single p.o., 5 hours after dosing, Mean ± SD): 140 ± 63.9 nM
concentration at 5 h ([2]; female, C57BI6, mouse, whole blood, single oral dose of 30 mg/kg, 5 hours post-dose, Mean ± SD (n = 5)): 28.4 ± 18.2 nM
concentration at 8 h ([2]; female, C57BI6, mouse, whole blood, single oral dose of 30 mg/kg, 8 hours post-dose, Mean ± SD (n = 5)): 9.2 ± 6.7 nM
Concentration in blood ([2]; single oral dose of 30 mg/kg, 19 hours post-dose): Below LLOQ
concentration at 2.5 h ([3]; 3 mg/Kg p.o.): 7 ± 2 nM
concentration at 2.5 h ([3]; 10 mg/Kg p.o.): 35 ± 14 nM
concentration at 2.5 h ([3]; 30 mg/Kg p.o.): 111 ± 56 nM
concentration at 2.5 h ([3]; 100 mg/Kg p.o.): 488 ± 371 nM
IC50 (LAD2 cells): 7 nM
Trough level inhibition of CD63 ([4]; MAD, 10 mg q.d., last day of dosing): 80%
Inhibition of CD203c+ basophils ([4]; MAD, 200 mg b.i.d): 67%
Inhibition of CD203c+ basophils ([4]; MAD, 400 mg q.d.): 63%
Inhibition of blood basophil activation measured by CD63 expression ([4]; MAD, daily dose greater than or equal to 50 mg, day 1-12 and several days beyond): full inhibition
Trough inhibition of CD63 ([4]; MAD, greater than or equal to 100 mg q.d., last day of dosing): greater than 97%
Inhibition of CD203c+ basophil activation marker ([4]; SAD, 200 mg cohort, at 8h): up to 79.4%
Inhibition of basophil activation measured by CD63 ([4]; SAD, doses of 60 mg): > 89%
Inhibition of basophil activation measured by CD63 ([4]; SAD, higher doses, 24 h post dose): ~100%
Inhibition of skin swelling (time-course study) (C57BI6 mice; 30 mg/kg p.o., Arthus reaction elicited 2 hours post dosing): 65.7%
Inhibition of the Arthus reaction (skin swelling) (C57BI6 mice; 30 mg/kg single p.o.): 73%
Inhibition of the Arthus reaction (skin swelling) (C57BI6 mice; 100 mg/kg single p.o.): 61.2%
Timepoint at which pharmacologic effect in the skin returned to vehicle levels (C57BI6 mice; single dose 30 mg/kg p.o.): ≤ 45 hours

Source: patent publication US20250032488A1, “METHODS OF TREATMENT USING LOU064” (NOVARTIS AG, priority 2021, published 2025)
